# Test system: HT-29 cells
# Test: Necroptosis assay (TNF-α/Smac mimetic/z-VAD, TSZ-induced) in HT-29 cells
# Assay type: cell-based, human
# Conditions: Homo sapiens; Series 1 (Table 1) compounds 1-146; HT-29 cells, TNF-α/Smac mimetic/z-VAD, 24 hrs, cell viability by ATP level; read-out: Series 1 compound necroptosis activity
# Procedure: Methods: HT-29 cells were cultured in McCoy's 5 A culture medium (Invitrogen). On day one, HT-29 cells were plated in 96-well assay plates at density of 2,500-3,500 cells per well. On day two, necrosis were induced by adding 20 ng/ml TNF-α (T), 100 nM Smac mimetic (S), and […] z-VAD (Z). At the same time, 10 mM compound from a chemical library of ˜200,000 compounds was delivered into each well. After 24 hrs treatment, cell viability was determined by measuring ATP level using the Cell Titer-Glo Luminescent Cell Viability Assay kit. A CellTiter-Glo Assay (Promega) was performed according to the manufacturer's instructions. Luminescence was recorded with a PerkinElmer EnSpire Multimode Plate Reader. Survived cells were normalized to those cells treated with DMSO. RIPA-56 was used as a positive control for screening necroptosis inhibitors. Data are represented as mean±standard deviation of duplicates.
# In previous work, we performed a cell-based high-throughput screen to identify necroptosis inhibitors using a chemical library of ˜200,000 compounds and identified multiple compounds that protected human colorectal adenocarcinoma (HT-29) cells from TNF-α/Smac mimetic/Z-VAD-fmk (TSZ)-induced necroptosis.^[4]
# The anti-necroptosis potency of compounds 7-12 and 14-18 was evaluated in the HT-29 cell line; the EC50 values are shown in Table B.
# [a] Necroptosis was induced in HT-29 cells for 24 h; the EC50 values given here are the mean values of at least three independent analyses.
row,Structure (SMILES),EC50
1,"Cn1c(=O)c2c(nc(S(C)(=O)=O)n2C)n(CC#N)c1=O [Compound 107, 2-(1,7-dimethyl-8-(methylsulfonyl)-2,6-dioxo-1H-purin-3(2H,6H,7H)-yl)acetonitrile]",1 to 100 µM
2,"Cn1c(=O)c2c(nc(S(=O)(=O)CC3CC3)n2C)n(Cc2cccc(Br)c2)c1=O [Compound 140, 3-(3-bromobenzyl)-8-((cyclopropylmethyl)sulfonyl)-1,7-dimethyl-1H-purine-2,6(3H,7H)-dione]",1 to 100 µM
3,"Cn1c(=O)c2c(nc(S(=O)(=O)CC3CC3)n2C)n(Cc2ccc(Br)cc2)c1=O [Compound 141, 3-(4-bromobenzyl)-8-((cyclopropylmethyl)sulfonyl)-1,7-dimethyl-1H-purine-2,6(3H,7H)-dione]",1 to 100 µM
4,"CCn1c(S(C)(=O)=O)nc2c1c(=O)n(C)c(=O)n2C [Compound 74, 7-ethyl-1,3-dimethyl-8-(methylsulfonyl)-1H-purine-2,6(3H,7H)-dione]",1 to 10 µM
5,"CNc1cc(C#CCn2c(=O)n(C)c(=O)c3c2nc(S(=O)(=O)Cc2cc(OC)ccc2OC)n3C)ccn1 [Compound 127, 8-((2,5-dimethoxybenzyl)sulfonyl)-1,7-dimethyl-3-(3-(2-(methylamino)pyridin-4-yl)prop-2-yn-1-yl)-3,7-dihydro-1H-purine-2,6-dione]",1 to 10 µM
6,"Cn1c(=O)c2c(nc(S(C)(=O)=O)n2C)n(Cc2ccccc2)c1=O [Compound 103, 3-benzyl-1,7-dimethyl-8-(methylsulfonyl)-1H-purine-2,6(3H,7H)-dione]",1 to 100 µM
7,"Cn1c(=O)c2c(nc(S(=O)(=O)CC3CC3)n2C)n(Cc2ccc(F)cc2)c1=O [Compound 135, 8-((cyclopropylmethyl)sulfonyl)-3-(4-fluorobenzyl)-1,7-dimethyl-1H-purine-2,6(3H,7H)-dione]",1 to 100 µM

# Same assay, conditions: Homo sapiens; Series 2 (Table 2) compounds; HT-29 necroptosis assay; read-out: Series 2 compound necroptosis activity
row,Structure (SMILES),EC50
1,Cn1c(=O)c2c(nc(S(=O)(=O)CC3CC3)n2C)n(CC#Cc2cc(NC(=O)C3CC3)cc(C(F)(F)F)c2)c1=O [Compound 46],0.1 to 10 µM
2,COCC(=O)Nc1cc(C#CCn2c(=O)n(C)c(=O)c3c2nc(S(C)(=O)=O)n3C)cc(NC(=O)C2CC2)c1 [Compound 38],0.001 to 0.1 µM
3,Cn1c(=O)c2c(nc(S(C)(=O)=O)n2C)n(CC#Cc2cc(NC(=O)CN3CCOCC3)cc(NC(=O)C3CC3)c2)c1=O [Compound 36],0.001 to 0.1 µM
4,COCCn1c(S(C)(=O)=O)nc2c1c(=O)n(C)c(=O)n2C [Compound 6],10 to 100 µM
5,Cn1c(=O)c2c(nc(S(C)(=O)=O)n2C)n(CC#Cc2cccc(NC(=O)c3ccccc3)c2)c1=O [Compound 11],0.001 to 0.1 µM
6,Cn1c(=O)c2c(nc(S(C)(=O)=O)n2C)n(CC#Cc2cc(NC(=O)C3CC3)nc(C(F)(F)F)c2)c1=O [Compound 43],0.001 to 0.1 µM
7,Cn1c(=O)c2c(nc(S(=O)(=O)CC3CC3)n2C)n(CC#Cc2ccnc(NC(=O)CN3CCOCC3)c2)c1=O [Compound 32],0.001 to 0.1 µM
8,COCCOCCNc1cccc(C#CCn2c(=O)n(C)c(=O)c3c2nc(S(C)(=O)=O)n3C)c1 [Compound 12],0.001 to 0.1 µM
9,Cn1c(=O)c2c(nc(S(=O)(=O)CC3CC3)n2C)n(CC#Cc2ccnc(NC(=O)C3CC3)c2)c1=O [Compound 31],0.001 to 0.1 µM
10,Cn1c(=O)c2c(nc(S(C)(=O)=O)n2C)n(CC#Cc2cccc(NC(=O)CN3CCOCC3)c2)c1=O [Compound 17],0.001 to 0.1 µM
11,Cn1c(=O)c2c(nc(S(C)(=O)=O)n2C)n(CC#Cc2cccc(NCCN3CCCCC3)c2)c1=O [Compound 18],0.1 to 10 µM

# Same assay, conditions: Series 1 (Table 1) compounds 1-146; HT-29 cells, TNF-α/Smac mimetic/z-VAD, 24 hrs, cell viability by ATP level; read-out: Series 1 compound necroptosis activity
row,Structure (SMILES),EC50
1,"COc1ccc(CS(=O)(=O)c2nc3c(c(=O)n(C)c(=O)n3C)n2C)cc1 [Compound 37, 8-(4-methoxybenzylsulfonyl)-1,3,7-trimethyl-1H-purine-2,6(3H,7H)-dione]",1 to 1000 µM
2,"Cn1c(=O)c2c(nc(S(=O)(=O)CCc3ccccc3)n2C)n(C)c1=O [Compound 22, 1,3,7-trimethyl-8-(phenethylsulfonyl)-1H-purine-2,6(3H,7H)-dione]",1 to 1000 µM
3,"CCSc1nc2c(c(=O)n(C)c(=O)n2C)n1CC [Compound 75, 7-ethyl-8-(ethylthio)-1,3-dimethyl-1H-purine-2,6(3H,7H)-dione]",1 to 1000 µM
4,"Cn1c(=O)c2c(nc(S(=O)(=O)Cc3ccc(C4(C(F)(F)F)N=N4)cc3)n2C)n(C)c1=O [Compound 41, 1,3,7-trimethyl-8-(4-(3-(trifluoromethyl)-3H-diazirin-3-yl)benzylsulfonyl)-1H-purine-2,6(3H,7H)-dione]",1 to 1000 µM
5,"COc1cc(CS(=O)(=O)c2nc3c(c(=O)n(C)c(=O)n3C)n2C)c(OC)cc1F [Compound 71, 8-(4-fluoro-2,5-dimethoxybenzylsulfonyl)-1,3,7-trimethyl-1H-purine-2,6(3H,7H)-dione]",1 to 1000 µM
6,"COc1ccccc1CS(=O)(=O)c1nc2c(c(=O)n(C)c(=O)n2C)n1C [Compound 35, 8-(2-methoxybenzylsulfonyl)-1,3,7-trimethyl-1H-purine-2,6(3H,7H)-dione]",1 to 1000 µM
7,"Cn1c(S(C)(=O)=O)nc2c1c(=O)n(-c1ccccc1)c(=O)n2C [Compound 92, 3,7-dimethyl-8-(methylsulfonyl)-1-phenyl-1H-purine-2,6(3H,7H)-dione]",1 to 1000 µM
8,"CCn1c(SCC2CC2)nc2c1c(=O)n(C)c(=O)n2C [Compound 81, 8-(cyclopropylmethylthio)-7-ethyl-1,3-dimethyl-1H-purine-2,6(3H,7H)-dione]",1 to 1000 µM
9,"Cn1c(=O)c2c(nc(S(=O)(=O)Cc3ccccc3F)n2C)n(C)c1=O [Compound 26, 8-(2-fluorobenzylsulfonyl)-1,3,7-trimethyl-1H-purine-2,6(3H,7H)-dione]",1 to 1000 µM
10,"Cn1c(=O)c2c(nc(S(=O)(=O)Cc3cccc(Cl)c3)n2C)n(C)c1=O [Compound 30, 8-(3-chlorobenzylsulfonyl)-1,3,7-trimethyl-1H-purine-2,6(3H,7H)-dione]",1 to 1000 µM
11,"Cn1c(S(C)(=O)=O)nc2c1c(=O)n(Cc1ccccc1)c(=O)n2C [Compound 93, 1-benzyl-3,7-dimethyl-8-(methylsulfonyl)-1H-purine-2,6(3H,7H)-dione]",1 to 1000 µM
12,"COc1c(Cl)cccc1CS(=O)(=O)c1nc2c(c(=O)n(C)c(=O)n2C)n1C [Compound 63, 8-(3-chloro-2-methoxybenzylsulfonyl)-1,3,7-trimethyl-1H-purine-2,6(3H,7H)-dione]",1 to 1000 µM
13,"CCNC(=O)C#CCn1c(=O)n(C)c(=O)c2c1nc(S(C)(=O)=O)n2C [Compound 132, 4-(1,7-dimethyl-8-(methylsulfonyl)-2,6-dioxo-1H-purin-3(2H,6H,7H)-yl)-N-ethylbut-2-ynamide]",1 to 1000 µM
14,"Cn1c(=O)c2c(nc(S(=O)(=O)Cc3ccccc3C#N)n2C)n(C)c1=O [Compound 42, 2-((1,3,7-trimethyl-2,6-dioxo-2,3,6,7-tetrahydro-1H-purin-8-ylsulfonyl)methyl)benzonitrile]",1 to 1000 µM
15,"Cn1c(=O)c2c(nc(S(=O)(=O)CC3CC3)n2C)n(Cc2ccncc2)c1=O [Compound 144, 8-((cyclopropylmethyl)sulfonyl)-1,7-dimethyl-3-(pyridin-4-ylmethyl)-1H-purine-2,6(3H,7H)-dione]",1 to 1000 µM
16,"COc1cccc(CS(=O)(=O)c2nc3c(c(=O)n(C)c(=O)n3C)n2C)c1OC [Compound 61, 8-(2,3-dimethoxybenzylsulfonyl)-1,3,7-trimethyl-1H-purine-2,6(3H,7H)-dione]",1 to 1000 µM

# Same assay, conditions: Series 1 (Table 1) compounds 147-176; activity extrapolated; read-out: Series 1 compound necroptosis activity (extrapolated)
row,Structure (SMILES),EC50
1,COCCOCCS(=O)(=O)c1nc2c(c(=O)n(C)c(=O)n2CC#Cc2cccc(O)c2)n1C [Compound 154],1 to 1000 µM
2,CCCC(=O)Nc1cccc(C#CCn2c(=O)n(C)c(=O)c3c2nc(S(=O)(=O)CC2CC2)n3C)c1 [Compound 161],1 to 1000 µM
3,Cn1c(=O)c2c(nc3n2CCCS3(=O)=O)n(CC#Cc2cccc(O)c2)c1=O [Compound 149],1 to 1000 µM
4,CNc1cc(C#CCn2c(=O)n(C)c(=O)c3c2nc(S(C)(=O)=O)n3C)ccc1N1CCN(C)CC1 [Compound 175],1 to 1000 µM
5,Cn1c(=O)c2c(nc(S(=O)(=O)CCc3ccccc3)n2C)n(CC#Cc2ccc3nc[nH]c3c2)c1=O [Compound 164],1 to 1000 µM
6,Cn1c(=O)c2c(nc3n2CCS3(=O)=O)n(CC#Cc2cccc(O)c2)c1=O [Compound 148],1 to 1000 µM
7,CNS(=O)(=O)c1nc2c(c(=O)n(C)c(=O)n2CC#Cc2cccc(O)c2)n1C [Compound 157],1 to 1000 µM
8,CCCS(=O)(=O)c1nc2c(c(=O)n(C)c(=O)n2CC#Cc2cccc(O)c2)n1C [Compound 155],1 to 1000 µM
9,Cn1c(=O)c2c(nc(S(C)(=O)=O)n2C)n(CC#Cc2cccc(NCc3ccccc3)c2)c1=O [Compound 166],1 to 1000 µM

# Same assay, conditions: Series 1 (Table 1) compounds; HT-29 cells, TNF-α/Smac mimetic/z-VAD, 24 hrs, cell viability by ATP level; read-out: Series 1 compound necroptosis activity
row,Structure (SMILES),EC50
1,"Cn1c(=O)c2c(nc(S(=O)(=O)CC3CC3)n2C)n(CC#Cc2cccc(NC(=O)OC(C)(C)C)c2)c1=O [Compound 123, tert-butyl(3-(3-(8-((cyclopropylmethyl)sulfonyl)-1,7-dimethyl-2,6-dioxo-1,2,6,7-tetrahydro-3H-purin-3-yl)prop-1-yn-1-yl)phenyl)carbamate]",0.001 to 1 µM
